Assay results published in patent publication US20230265438A1, “NUCLEIC ACIDS FOR INHIBITING EXPRESSION OF CNNM4 IN A CELL” (ASOCIACIÓN CENTRO DE INVESTIGACIÓN COOPERATIVA EN …, priority 2020, published 2023).
Oligonucleotides are written 5' to 3', each unit as a sugar letter and its base; * is a phosphorothioate linkage, no mark a phosphodiester; rarer units and linkages stand in square brackets, end groups in braces. Plain capitals give the bases only. {ST23(ps)x3-ST43} = conjugate of three ST23 units joined by phosphorothioates, then ST43, saccharide (preferably GalNAc) moiety; {VP} = (E)-vinylphosphonate; m = 2'-O-methyl; f = 2'-fluoro

Legend:
primary hepatocytes [1] = assay: Lipid content in NASH-induced primary hepatocytes, BODIPY (Example 1); assay type: cell-based, mouse
Procedure: Primary hepatocytes from 3-month old wild-type (C57BL/6J) mice were isolated by perfusion with collagenase Type I (Worthington, USA). Briefly, animals were anesthetized with isoflurane (1.5% isoflurane in O2). […] Liver was perfused with buffer A (1x PBS, 5 mM EGTA, 37° C. and oxygenated) and the portal vein was cut. Next, liver was perfused with buffer B (1x PBS, 1 mM CaCl2 37° C. and oxygenated) to remove EGTA, and finally perfused with buffer C (1x PBS, 2 mM CaCl2, 0.65 BSA, collagenase type I, 37° C. and oxygenated). After buffer C perfusion, liver was separated from the resto of the body and placed into a petri dish with MEM (Gibco, USA). Gall bladder was carefully removed and, then, liver was mechanically disaggregated with forceps. […]
(§1) Primary hepatocytes cultured in high lipid content medium (OA) or methionine/choline deficient medium (MDMC) were fixed in 4% paraformaldehyde (10′, RT) in PBS and incubated with BODIPY 493/503 (Molecular Probes, Invitrogen) at 1 mg/ml (1h, RT). […] Quantification of lipid bodies was performed using Frida Software and represented as mean area per total number of cells.

primary hepatocytes [2] = assay: Intracellular magnesium levels in primary hepatocytes (Example 1); assay type: cell-based, mouse; settings: NASH-induced primary hepatocytes; FIG. 7B
Procedure: Primary hepatocytes grown in glass coverslips were loaded with 2 µM Mag-S-Tz or 1 µM Mag-S-Tz-AM diluted REF (Gruskos et al., 2016. J. Am. Chem. Soc. 138 (44), pp 14639-14649) in 0% FBS/1% PSG medium and incubated at 37° C. and 5% CO2 during 30′ or 1 h respectively. After removing the dye-containing medium, a 30′ incubation in 0% FBS/1% PSG was performed. Coverslips were then washed in a 20 mM Tris-HCl, 2.4 mM CaCl2, 10 mM glucose, pH 7.4 buffer and mounted on a perfusion chamber with thermostat on a Eclipse TE 300-based microspectrofluorometer (Nikon, USA) and visualized with a 40x oil-immersion fluorescence. Intracellular Mg2+ levels were determines using the method described by Grynkiewicz (Grynkiewiz et al., 1985. J Biol Chem. 260(6):3440-50). The 340/380 nm excited light ratio was determined with a Delta system (Photon Technologies International, Princeton) and converted into Mg^2+ concentration from the standard equation: […]

ASGP-R complex = biological target: T1, ASGP-R complex (Homo sapiens, UniProt P07306+P07307); settings: cited from earlier work
T1 sequence (P07306 1-291): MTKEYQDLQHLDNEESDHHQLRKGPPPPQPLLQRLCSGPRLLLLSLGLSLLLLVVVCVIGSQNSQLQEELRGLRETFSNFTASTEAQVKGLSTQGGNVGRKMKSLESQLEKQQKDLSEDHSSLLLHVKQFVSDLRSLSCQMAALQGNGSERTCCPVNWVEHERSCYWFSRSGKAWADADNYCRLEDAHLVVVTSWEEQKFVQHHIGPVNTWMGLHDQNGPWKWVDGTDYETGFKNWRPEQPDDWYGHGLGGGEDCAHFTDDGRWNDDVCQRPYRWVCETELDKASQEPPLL
T1 sequence (P07307 1-311): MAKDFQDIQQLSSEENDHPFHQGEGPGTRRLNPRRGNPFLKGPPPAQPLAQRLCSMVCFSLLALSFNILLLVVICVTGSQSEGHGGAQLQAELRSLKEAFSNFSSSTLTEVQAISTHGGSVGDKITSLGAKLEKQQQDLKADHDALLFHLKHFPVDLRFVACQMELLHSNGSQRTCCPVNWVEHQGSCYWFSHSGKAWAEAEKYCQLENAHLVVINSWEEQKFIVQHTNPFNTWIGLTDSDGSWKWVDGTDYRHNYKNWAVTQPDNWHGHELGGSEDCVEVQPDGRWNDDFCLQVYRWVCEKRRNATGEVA

THLE2 cells = assay: Lipid accumulation in NASH-induced human cells (THLE2) (Example 1); assay type: cell-based; settings: FIG. 4A, 4B
Procedure: THLE-2 cells were purchased from ATCC (ATCC® CRL-2706TM). They were maintained on Bronchial Epithelial Growth Medium (BEGMTM, Lonza) supplemented with BEGM Bullet KitTM (Lonza) and 10%FBS. They were split with 0.05% trypsin-EDTA and collected in BEGM. After centrifugation at 123 g during 5 minutes, supernatant was discarded and pellet resuspended.
Cells were transfected with specific siRNAs (Hs n7o for human CNNM4 and Mm n7o for mouse CNNM4) at a final concentration of 100 nM using DharmaFECT 1 reagent (Dharmacon) following manufacturer’s protocol. DharmaFECT 1 and siRNA were diluted separately in 0% FBS/1% PSG MEM for 5′ at RT. Dilutions were then mixed and incubated 20′ at RT. siRNA transfection mixes were then added to cell suspension medium and replaced for fresh medium after 6 h.
Cells were transfected with a CNNM4 shRNA (SEQ ID NO: 454) by using lipofectamine® 3000 (Thermofisher) and following the protocol according manufacturer instructions. […]
as §1

murine hepatocytes = assay: Acetaminophen (APAP) induced cell death in hepatocytes, Tunel and Trypan Blue (Example 19); assay type: cell-based; settings: 1 nM and 10 nM for 6 hours, 10 mM acetaminophen for 6 hours
Procedure: Freshly prepared murine hepatocytes were seeded in multi-well plates. Upon attachment, cells were incubated for 6 hours with 1 nM and 10 nM of EU404 or EU414 or left untreated. Thereafter, cells were cultured in serum-free culture medium (MEM) for 13 to 14 hours. Subsequently, they remained untreated (Ut) or 10 mM acetaminophen was added to the medium (APAP). 6 hours later, cells were stained by Tunel assay or Trypan Blue staining to determine the proportion of cells that were necrotic (Tunel positive) or had undergone cell death (Trypan Blue positive).

CNNM4 = CNNM4 expression in hepatocytes of the APAP experiment (Example 19); assay type: cell-based; settings: murine hepatocytes, 1 nM and 10 nM for 6 hours; FIG. 25A
0.1% MCDD NASH model = assay: Rodent 0.1% MCDD NASH model: steatosis, ROS, macrophages, fibrosis, serum Mg2+ (Example 18); assay type: in vivo, mouse; settings: 0.1% MCDD mice
Procedure: Three-month old male C57BL/6 mice were maintained on a diet deficient in choline with 0.1% methionine (0.1%MCDD) (A02082006i, Research Diets, Inc., New Jersey, USA) for six weeks or fed a standard chow (SC). After three weeks of 0.1% MCDD, mice were treated with […] CNNM4 siRNA conjugate (EU414) per body weight. Control groups fed with 0.1% MCD received 1 mg/kg non-targeting siRNA conjugate (EU400). Control mice fed with normal chow (SC) received the vehicle PBS at the same time point (three weeks). Liver samples were collected from all mice at the end of the study and cryopreserved by embedding in […] cryocompound (OCT) or fixed with formalin and embedded in paraffin for preparation of sections. Lipid bodies and reactive oxygen species (ROS) were detected in cryosections by staining with Sudan red and Dihydroxyetidium (DHE), respectively. Liver fibrosis was assessed in paraffine sections by staining of the smooth muscle cell marker alpha smooth muscle actin (αSMA) by immunohistochemistry, as well as by detection of collagen fibers by Sirius red staining. Macrophages were detected by immunohistochemistry, by F4/80 staining of paraffin-embedded liver sections. Blood samples were collected from all animals at the six-week time point for serum preparation. Serum Mg^2+ levels were then determined using the QuantiCrom™Magnesium Assay Kit (BioAssay Systems, USA).
These figures show quantifications of stained area percentages from each individual staining calculated using FIJI (https://imagej.net/Fiji.) in box and whisker plots with 5-95% percentile. n=5-7. (a.u. = arbitrary units).

CNNM4 mRNA = CNNM4 mRNA in liver of wild-type mice after single subcutaneous dose (Examples 12-14); assay type: in vivo, mouse; settings: wild-type C57BL/6 mice
Procedure: (§2) Five- to seven-week old male C57BL/6 mice were treated with a single dose of 1 or 5 mg siRNA conjugate per kg body weight by subcutaneous injection. Control groups received a subcutaneous injection with the vehicle PBS. Two weeks after the treatment, liver samples were collected from all mice and snap frozen. RNA was extracted from liver samples and CNNM4 and Actin mRNA levels were determined by Taqman qRT-PCR. Values obtained for CNNM4 mRNA were normalized to values generated for the housekeeping gene Actin and related to mean of untreated sample (ut) set at 1-fold target gene expression. Each bar represents mean value from 6 animals +/-SD.
Five- to seven-week old male C57BL/6 mice were treated with a single dose of 0.3 or 1 mg siRNA conjugate per kg body weight by subcutaneous injection. Control groups received a subcutaneous injection with the vehicle PBS. Two weeks after the treatment, liver samples were collected from all mice and snap frozen. RNA was extracted from liver samples and CNNM4 and Actin mRNA levels were determined by Taqman qRT-PCR. Values obtained for CNNM4 mRNA were normalized to values generated for the housekeeping gene Actin and related to mean of untreated sample (ut) set at 1-fold target gene expression. Each bar represents mean value from 6 animals +/-SD.
as §2, with “1” for “1 or 5”, “Five” for “Two”, “PBS treated cohort (PBS)” for “untreated sample (ut)”

Q: With `Nc1c[nH]c(=O)c2cc(-c3ccccc3)sc12` [7-amino-2-phenyl-5H-thieno[3,2-c]pyridin-4-one, reference compound] as the compound, how does the Lipid content (primary hepatocytes [1]; NASH-induced primary hepatocytes, FIG. 3A, 5A, 7A) read?
A: decreases its lipid content

Q: What about the Intracellular magnesium levels (primary hepatocytes [2]) of the same compound?
A: accumulate magnesium

Q: With `CC(=O)N[C@H]1C(O)O[C@H](CO)[C@H](O)[C@@H]1O` (stereo partly drawn) [GalNAc, 2-(Acetylamino)-2-deoxy-D-galactopyranose] as the compound, how does the “Affinity for the ASGP-R complex relative to D-Gal” value (ASGP-R complex) read?
A: 50 fold

Q: Which Lipid content (THLE2 cells) does the source give for “CNNM4 shRNA: CNNM4 shRNA (SEQ ID NO: 454) (UCUCUGCCUUCAAGGAUGCGGACAAUGAG; listed as RNA, chemistry not fully specified)” here?
A: returns to healthy levels

Q: What does the source list for “EU414: CNNM4 siRNA conjugate, duplex EU414A/EU414B; consists of SEQ ID NO: 237 and SEQ ID NO: 238 (chain 1 {VP}-mUfGmAfCmAfAmAfAmGfAmCfAmCfAmAfGmA*fG*mU; chain 2 {ST23(ps)x3-ST43}*mAmCmUmCmUmUfGfUfGmUmCmUmUmUmUmGmU*mC*mA)”?
A: Tripan Blue positive cells (cell death marker) (murine hepatocytes): reduction; Tunel positive cells (necrosis marker) (murine hepatocytes): reduction of Tunel positive cells; CNNM4 expression (CNNM4): reduction of CNNM4 expression; Liver steatosis (lipid bodies, Sudan red) (0.1% MCDD NASH model; 1 or 5 mg/kg at week 3, liver at week 6, FIG. 24A): reduction of liver steatosis; Reactive oxygen species (DHE staining) (0.1% MCDD NASH model; 1 or 5 mg/kg at week 3, liver at week 6, FIG. 24B): reduction of reactive oxygen species; Macrophage infiltration (F4/80 positive cells) in the liver (0.1% MCDD NASH model; 1 or 5 mg/kg at week 3, liver at week 6, FIG. 24C): reduction of macrophage infiltration; Liver fibrosis (αSMA, Sirius red) (0.1% MCDD NASH model; 1 or 5 mg/kg at week 3, liver at week 6, FIGS. 24D and 24E): reduction in liver fibrosis; Serum Mg2+ levels (0.1% MCDD NASH model; 1 or 5 mg/kg at week 3, serum at six-week time point, FIG. 24F): reduction of serum Mg^2+ levels; CNNM4 mRNA levels in the liver (CNNM4 mRNA; two weeks after single dose of 1 or 5 mg/kg s.c., FIG. 18): reduction of CNNM4 mRNA levels

Q: Which “CNNM4 mRNA levels in the liver” value (CNNM4 mRNA; five weeks after single dose of 1 mg/kg s.c., FIG. 20) does the source give for “EU420: CNNM4 siRNA conjugate, duplex EU414A/EU420B; consists of SEQ ID NO: 237 and SEQ ID NO: 460 (chain 1 UGACAAAAGACACAAGAGU; chain 2 ACUCUUGUGUCUUUUGUCA; conjugate, chemistry not fully specified)” here?
A: reduction of CNNM4 mRNA levels

Q: And the “CNNM4 mRNA levels in the liver” value (CNNM4 mRNA; two weeks after single dose of 0.3 or 1 mg/kg s.c., FIG. 19)?
A: reduction of CNNM4 mRNA levels

Q: With Magnesium as the compound, how does the Lipid content (primary hepatocytes [1]; primary hepatocytes with CNNM4 overexpression, FIG. 5B) read?
A: does not reduce lipid content
